The target in the experiment is Nucleotide-binding oligomerization domain-containing protein 2 (Homo sapiens, UniProt Q9HC29). As to the kind of experiment: NOD2 signaling inhibitors in MDP-stimulated cells, cell-based, uHTS, luminescence (AID 2001).
Chain of Nucleotide-binding oligomerization domain-containing protein 2 (Q9HC29 whole entry, the tested form may be a part): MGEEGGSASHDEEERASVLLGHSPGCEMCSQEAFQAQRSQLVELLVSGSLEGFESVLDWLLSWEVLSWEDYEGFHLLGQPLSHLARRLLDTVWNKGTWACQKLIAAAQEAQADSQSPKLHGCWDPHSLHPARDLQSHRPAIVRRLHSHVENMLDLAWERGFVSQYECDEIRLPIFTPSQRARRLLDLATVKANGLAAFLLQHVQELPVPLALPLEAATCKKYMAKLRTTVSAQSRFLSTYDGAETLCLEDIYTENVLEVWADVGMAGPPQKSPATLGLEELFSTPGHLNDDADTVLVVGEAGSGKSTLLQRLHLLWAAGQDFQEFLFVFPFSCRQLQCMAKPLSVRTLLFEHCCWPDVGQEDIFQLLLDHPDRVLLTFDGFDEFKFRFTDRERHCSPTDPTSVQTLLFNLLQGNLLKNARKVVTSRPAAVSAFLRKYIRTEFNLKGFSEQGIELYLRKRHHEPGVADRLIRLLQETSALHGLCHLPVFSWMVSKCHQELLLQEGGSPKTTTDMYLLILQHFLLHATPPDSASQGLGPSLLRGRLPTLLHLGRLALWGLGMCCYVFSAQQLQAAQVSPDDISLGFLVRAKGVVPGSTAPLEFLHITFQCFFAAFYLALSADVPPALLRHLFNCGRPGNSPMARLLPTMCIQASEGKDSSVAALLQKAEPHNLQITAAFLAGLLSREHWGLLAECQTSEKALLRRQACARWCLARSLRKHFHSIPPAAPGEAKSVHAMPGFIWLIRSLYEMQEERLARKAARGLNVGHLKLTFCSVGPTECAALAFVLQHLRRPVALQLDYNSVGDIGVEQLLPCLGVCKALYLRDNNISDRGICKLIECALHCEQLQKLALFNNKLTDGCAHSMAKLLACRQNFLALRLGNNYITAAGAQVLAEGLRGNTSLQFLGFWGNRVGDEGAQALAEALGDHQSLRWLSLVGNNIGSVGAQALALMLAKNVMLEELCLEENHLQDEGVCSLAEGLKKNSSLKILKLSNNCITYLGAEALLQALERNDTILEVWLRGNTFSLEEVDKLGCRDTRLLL
As to `Cc1cc(CN=Nc2ncnc(N)c2[N+](=O)[O-])c(C)n1-c1ccccc1`, the IC50 (in general, the concentration needed to halve the response being measured) amounted to 6.1 µM.
In the case of `Cc1cc(SCC(=O)OCC(=O)C(C#N)c2nc3ccccc3[nH]2)c(C)cc1Br` (stereo unspecified), the IC50 turned out to be 5.41 µM.
Compound `O=C1C(=O)N(c2nccs2)C(c2ccccc2)C1C(=O)c1ccc2c(c1)OCCO2` (stereo unspecified) gave an IC50 of 18.6 µM.
For `CCCOC1=CC(=O)C(C=NNC(=S)Nc2ccccc2[N+](=O)[O-])C=C1` (stereo unspecified) [1-(2-nitrophenyl)-3-[[(E)-(6-oxo-4-propoxy-1-cyclohexa-2,4-dienylidene)methyl]amino]thiourea], the IC50 stood at 0.233 µM.
Turning to `C=CCN1C(=O)C(=NNC(=S)Nc2cccc(C)c2)c2ccccc21` [1-(3-methylphenyl)-3-[(Z)-(2-oxidanylidene-1-prop-2-enyl-indol-3-ylidene)amino]thiourea], the IC50 turned out to be 1.18 µM. Compared with the last compound, the IC50 is about 5.1-fold higher.
In turn, `CCCCCCC1=Cc2c/c(=C3/NN=C(c4ccccc4OC)O3)c(=O)oc2=CC1=O` [6-Hexyl-7-hydroxy-3-[5-(2-methoxy-phenyl)-[1,3,4]oxadiazol-2-yl]-chromen-2-one] gave an IC50 of 8.48 µM.
As for `CCCCCCC1=Cc2c/c(=C3/NN/C(=C4/C=CC=CC4=O)O3)c(=O)oc2=CC1=O` [(3E)-6-hexyl-3-[(5E)-5-(6-oxocyclohexa-2,4-dien-1-ylidene)-1,3,4-oxadiazolidin-2-ylidene]chromene-2,7-dione], the IC50 turned out to be 4.36 µM. Against the preceding compound, the IC50 is about 1.9-fold lower.
`Cc1ccc(O)c(/N=C/C2=CC(Cc3ccccc3)C=C([N+](=O)[O-])C2=O)c1` (stereo unspecified) [(6E)-6-[[(5-methyl-2-oxidanyl-phenyl)amino]methylidene]-2-nitro-4-(phenylmethyl)cyclohexa-2,4-dien-1-one] displayed an IC50 of 12.4 µM.
The compound `Cc1ccc(C)c(SCC(=O)OCC(=O)C(C#N)c2nc3ccccc3[nH]2)c1` (stereo unspecified) [MLS000392255] gave an IC50 of 4.92 µM.
With `Cc1cc(CN=Nc2nc(N)ncc2[N+](=O)[O-])c(C)n1-c1ccccc1F` [MLS000392273], the IC50 was determined as 6.02 µM.
For `COc1ccc(NS(=O)(=O)c2ccc(N=NC(C)c3ccncc3)c([N+](=O)[O-])c2)cc1` (stereo unspecified) [MLS000393523] the value was 2.11 µM; for `C=CCN1C(=O)C(=NNC(=S)Nc2cccc(OC)c2)c2ccccc21` [SMR000132469], 1.76 µM; for `CCOc1ccc(-c2csc(/C(C#N)=C/C3C=CC(=O)C([N+](=O)[O-])=C3)n2)cc1` (stereo unspecified) [SMR000237723], 2.58 µM.
Take `CN1C(=O)C(=NNC(=S)Nc2ccccc2F)c2cc(S(=O)(=O)N3CCOCC3)ccc21` [SMR000314843]: the IC50 was found to be 9.77 µM.
For `Cc1cc(N=NCc2ccccc2[N+](=O)[O-])nc(-n2nc(C)cc2C)n1` [SMR000426946] the value was 6.55 µM; for `COc1cc(CN=Nc2nc3c(c(=O)n(C)c(=O)n3C)n2Cc2ccccc2)ccc1OC(=O)c1ccco1` [[4-[[(7-benzyl-1,3-dimethyl-2,6-dioxopurin-8-yl)hydrazinylidene]methyl]-2-methoxyphenyl] furan-2-carboxylate], 5.98 µM.

(Values after BindingDB's records for doi:10.7270/Q23R0R8T (Burnham Center For Chemical Genomics, 2010).)
